# Source: patent US11207325B2, “Triazolopyrimidine compounds and uses thereof” (Novartis AG, priority 2014, dated 2021)
# System: H3K27 methylation in G401 cell
# Test: ELISA (H3K27 methylation) assay
# Type: cell-based
# Settings: Homo sapiens, G-401; ELISA Qualified assay (H3K27 methylation); read-out: (c) IC50 (μM), ELISA Qualified
# From the text: ELISA (H3K27 Methylation) Assay
row,Structure (SMILES),IC50
1,"CN(C)c1ccc(-c2cnc(NCc3cccc4c3CCO4)n3cnnc23)cn1 [Example 61, N-((2,3-dihydrobenzofuran-4-yl)methyl)-8-(6-(dimethylamino)pyridin-3-yl)-[1,2,4]triazolo[4,3-c]pyrimidin-5-amine]",0.175 µM
2,"COCCc1ccc(-c2cnc(NCc3cccc4c3CCO4)n3cnnc23)cn1 [Example 86, N-((2,3-dihydrobenzofuran-4-yl)methyl)-8-(6-(2-methoxyethyl)pyridin-3-yl)-[1,2,4]triazolo[4,3-c]pyrimidin-5-amine]",0.0758 µM
3,"c1cc(CNc2ncc(-c3ccc(N4CCSCC4)nc3)c3nncn23)c2c(c1)OCC2 [Example 81, N-((2,3-dihydrobenzofuran-4-yl)methyl)-8-(6-thiomorpholinopyridin-3-yl)-[1,2,4]triazolo[4,3-c]pyrimidin-5-amine]",0.155 µM
4,"Cc1nn(C2CC2)c(C)c1-c1cnc(NCc2c(F)ccc3c2CCO3)n2cnnc12 [Example 179, 8-(1-cyclopropyl-3,5-dimethyl-1H-pyrazol-4-yl)-N-((5-fluoro-2,3-dihydrobenzofuran-4-yl)methyl)-[1,2,4]triazolo[4,3-c]pyrimidin-5-amine]",0.0091 µM
5,"Nc1ccc(-c2cnc(NCc3cccc4c3CCO4)n3cnnc23)cn1 [Example 48, 8-(6-aminopyridin-3-yl)-N-((2,3-dihydrobenzofuran-4-yl)methyl)-[1,2,4]triazolo[4,3-c]pyrimidin-5-amine]",0.261 µM
6,"OC1CN(c2ccc(-c3cnc(NCc4cccc5c4CCO5)n4cnnc34)cn2)C1 [Example 126, 1-(5-(5-(((2,3-dihydrobenzofuran-4-yl)methyl)amino)-[1,2,4]triazolo[4,3-c]pyrimidin-8-yl)pyridin-2-yl)azetidin-3-ol]",0.656 µM
7,"O=C1CN(c2ccc(-c3cnc(NCc4cccc5c4CCO5)n4cnnc34)cn2)CCN1 [Example 104, 4-(5-(5-(((2,3-dihydrobenzofuran-4-yl)methyl)amino)-[1,2,4]triazolo[4,3-c]pyrimidin-8-yl)pyridin-2-yl)piperazin-2-one]",2.33 µM
8,"Cc1nc(C(=O)N(C)C)ccc1-c1cnc(NCc2c(F)ccc3c2CCO3)n2cnnc12 [Example 199, 5-(5-(((5-fluoro-2,3-dihydrobenzofuran-4-yl)methyl)amino)-[1,2,4]triazolo[4,3-c]pyrimidin-8-yl)-N,N,6-trimethylpicolinamide]",0.005 µM
9,"N#Cc1ccc(-c2cnc(NCc3cccc4c3CCO4)n3cnnc23)cn1 [Example 62, 5-(5-(((2,3-dihydrobenzofuran-4-yl)methyl)amino)-[1,2,4]triazolo[4,3-c]pyrimidin-8-yl)picolinonitrile]",0.339 µM
10,"CC(c1ccc(-c2cnc(NCc3c(F)ccc4c3CCO4)n3cnnc23)cc1)N1CCCC1 (stereo not shown) [Example 46, N-((5-fluoro-2,3-dihydrobenzofuran-4-yl)methyl)-8-(4-(1-(pyrrolidin-1-yl)ethyl)phenyl)-[1,2,4]triazolo[4,3-c]pyrimidin-5-amine]",0.0048 µM
11,"Cc1nn(C(C)C)c(C)c1-c1cnc(NCc2cccc3c2CCO3)n2cnnc12 [Example 153, N-((2,3-dihydrobenzofuran-4-yl)methyl)-8-(1-isopropyl-3,5-dimethyl-1H-pyrazol-4-yl)-[1,2,4]triazolo[4,3-c]pyrimidin-5-amine]",0.0073 µM
12,"CCn1nccc1-c1cnc(NCc2c(F)ccc3c2CCO3)n2cnnc12 [Example 143, 8-(1-ethyl-1H-pyrazol-5-yl)-N-((5-fluoro-2,3-dihydrobenzofuran-4-yl)methyl)-[1,2,4]triazolo[4,3-c]pyrimidin-5-amine]",0.0106 µM
13,"CN1CCN(c2ccc(-c3cnc(NCc4cccc5occc45)n4cnnc34)cc2)CC1 [Example 209, N-(benzofuran-4-ylmethyl)-8-(4-(4-methylpiperazin-1-yl)phenyl)-[1,2,4]triazolo[4,3-c]pyrimidin-5-amine]",0.118 µM
14,"Cc1cc(-c2cnc(NCc3cccc4c3CCO4)n3cnnc23)cnc1N1CCNC(=O)C1 [Example 105, 4-(5-(5-(((2,3-dihydrobenzofuran-4-yl)methyl)amino)-[1,2,4]triazolo[4,3-c]pyrimidin-8-yl)-3-methylpyridin-2-yl)piperazin-2-one]",2.42 µM
15,"CS(=O)(=O)c1ccc(-c2cnc(NCc3cccc4c3CCO4)n3cnnc23)cc1 [Example 12, N-((2,3-dihydrobenzofuran-4-yl)methyl)-8-(4-(methylsulfonyl)phenyl)-[1,2,4]triazolo[4,3-c]pyrimidin-5-amine]",0.0176 µM

# Second part, the molecule after the results:
row,IC50,Structure (SMILES)
1,0.0227 µM,"CS(=O)(=O)Nc1ccc(-c2cnc(NCc3c(F)ccc4c3CCO4)n3cnnc23)cc1F [Example 39, N-(2-fluoro-4-(5-(((5-fluoro-2,3-dihydrobenzofuran-4-yl)methyl)amino)-[1,2,4]triazolo[4,3-c]pyrimidin-8-yl)phenyl)methanesulfonamide]"
2,0.002 µM,"Fc1ccc2c(c1CNc1ncc(-c3cccnc3C(F)F)c3nncn13)CCO2 [Example 168, 8-(2-(difluoromethyl)pyridin-3-yl)-N-((5-fluoro-2,3-dihydrobenzofuran-4-yl)methyl)-[1,2,4]triazolo[4,3-c]pyrimidin-5-amine]"
3,0.0744 µM,"Fc1ccc2c(c1CNc1ncc(-c3ccc(Cl)cc3Cl)c3nncn13)CCO2 [Example 146, 8-(2,4-dichlorophenyl)-N-((5-fluoro-2,3-dihydrobenzofuran-4-yl)methyl)-[1,2,4]triazolo[4,3-c]pyrimidin-5-amine]"
4,0.0206 µM,"Fc1ccc2c(c1CNc1ncc(-c3ccnnc3)c3nncn13)CCO2 [Example 202, N-((5-fluoro-2,3-dihydrobenzofuran-4-yl)methyl)-8-(pyridazin-4-yl)-[1,2,4]triazolo[4,3-c]pyrimidin-5-amine]"
5,0.0016 µM,"Cc1nc(S(C)(=O)=O)ccc1-c1cnc(NCc2c(F)ccc3c2CCO3)n2cnnc12 [Example 139, N-((5-fluoro-2,3-dihydrobenzofuran-4-yl)methyl)-8-(2-methyl-6-(methylsulfonyl)pyridin-3-yl)-[1,2,4]triazolo[4,3-c]pyrimidin-5-amine]"
6,0.0029 µM,"Cn1nccc1-c1cnc(NCc2c(F)ccc3c2CCO3)n2cnnc12 [Example 169, N-((5-fluoro-2,3-dihydrobenzofuran-4-yl)methyl)-8-(1-methyl-1H-pyrazol-5-yl)-[1,2,4]triazolo[4,3-c]pyrimidin-5-amine]"
7,0.0108 µM,"Fc1ccc2c(c1CNc1ncc(-c3ccc(C4CC4)nc3)c3nncn13)CCO2 [Example 119, 8-(6-cyclopropylpyridin-3-yl)-N-((5-fluoro-2,3-dihydrobenzofuran-4-yl)methyl)-[1,2,4]triazolo[4,3-c]pyrimidin-5-amine]"
8,0.0358 µM,"Fc1ccc2c(c1CNc1ncc(-c3ccccn3)c3nncn13)CCO2 [Example 231, N-((5-fluoro-2,3-dihydrobenzofuran-4-yl)methyl)-8-(pyridin-2-yl)-[1,2,4]triazolo[4,3-c]pyrimidin-5-amine]"
9,0.365 µM,"CS(=O)(=O)c1cccc(-c2cnc(NCc3cccc4c3CCO4)n3cnnc23)c1 [Example 27, N-((2,3-dihydrobenzofuran-4-yl)methyl)-8-(3-(methylsulfonyl)phenyl)-[1,2,4]triazolo[4,3-c]pyrimidin-5-amine]"
10,0.297 µM,"CS(=O)(=O)Nc1ccc(-c2cnc(NCc3cccc4c3CCO4)n3cnnc23)cc1F [Example 33, N-(4-(5-(((2,3-dihydrobenzofuran-4-yl)methyl)amino)-[1,2,4]triazolo[4,3-c]pyrimidin-8-yl)-2-fluorophenyl)methanesulfonamide]"
